Experimental data published in patent publication US20150044717A1, “DEVICES AND METHODS FOR OBSERVING EUKARYOTIC CELLS WITHOUT CELL WALL” (CENTRE NATIONAL DE LA RECHERCHE SCIENTIFIQUE, priority 2012, published 2015).

Test system: cytokinetic ring of HeLa cells
Test: closure of the cytokinetic ring of cells in egg cups after addition of drugs (fluorescence microscopy)
Format: cell-based, human
Details: for ring diameter as a function of time / closing speed: after addition of latrunculin A 1.5 μM
Method: For the experiments, a human HeLa cell line was used. The cells were stably transfected with a plasmid coding for actin monomers tagged with GFP. Cells were cultured in a growth medium containing DMEM with 10% FCS and 2 mM of L-Glutamine. After replating cells, Geneticin (0.5 mg/ml) was added to the medium.
During the experiments, cells were cultured in L-15 with 10% FCS and 2 mM of L-Glutamine.
Synchronized cells were obtained by mitotic shake-off. To have a sufficient number of dividing cells, cells were cultured in flasks of 75 cm^2 surface. The flasks were tapped on a solid surface to detach loosely attached cells, which rounded up before undergoing division. Alternatively, cells were synchronized with classical protocols such as the thymidine block, mitotic block (both Whitfield M L, Mol. Cell. Biol. 2000, 20(12): 4188-4198) or monastrol incubation (Straight A F et al., Science. 2003, 299:1743-1747).
The coverslips with the egg cups were exposed to nitrogen plasma for 30 s and then incubated with a solution of fibronectin (20 μg/ml in phosphate buffered saline (PBS), Sigma Aldrich) for 1 h. The sample could be stored in PBS for some hours. A cylindrically shaped plastic piece was placed in a 50 ml tube. The tube was filled with 6.5 ml of growth medium. The egg cup coverslip was horizontally placed in a tube, supported by the plastic cylinder. The suspension of synchronized cells was added on top of the coverslip. The tube was centrifuged for 5 min at 4000 rpm. The coverslip was carefully removed from the tube and installed in a home-made metallic holder. L-15 medium with 10% FCS and 2 mM L-Glutamine was immediately added. During the experiment the holder was closed by a plastic cover to prevent evaporation.
The drugs were added immediately before the experiment. The inventors used a concentration of 1.5 μM latrunculin A (Sigma Aldrich) (Delanoc-Ayari H. et al., Phys. Rev. Lett. 2004, 93(10): 108102) and 100 μM (−)-blebbistatin (Sigma Aldrich) (Straight A F et al., Science. 2003, 299:1743-1747).
The objective was a Plan Apo 60× objective (oil, 1.40 NA, Nikon). The images were captured and processed with the NIS Elements software (v3.10, SP3, Nikon).

[1] = blebbistatin 100 μM, HeLa cells in egg cups

| SMILES | cell division (ring diameter as a function of time) [1] | closure of the cytokinetic ring [1] | ring diameter as a function of time / closing speed (HeLa cells in egg cups) | ring diameter as a function of time / closing speed (HeLa cells in egg cups, listed as latrunculin A) | cell division (in the presence of latrunculin A 1.5 μM, HeLa cells in egg cups) | closure of the cytokinetic ring (latrunculin A 1.5 μM, HeLa cells with GFP-actin in egg cups) |
| --- | --- | --- | --- | --- | --- | --- |
| Cc1ccc2c(c1)C(=O)C1(O)CCN(c3ccccc3)C1=N2 (single isomer, unassigned; (-)) [Blebbistatin, (−)-blebbistatin] | slows down and stops the division | the closure was slowed down and failed |  |  |  |  |
| C/C1=C/C(=O)O[C@@H]2C[C@@H](CC[C@H](C)/C=C\C=C\CC1)O[C@@](O)([C@@H]1CSC(=O)N1)C2 [Latrunculin A, latrunculin A] |  |  | a slight increase in closing speed, then a slight expansion of the ring | the speed is first slightly increasing, then the ring becomes larger again until the signal vanishes | Cells did not divide | the ring does not close completely |
